“And” between values parts separate entries of the source, which are not always exact repeats. Equal entries are not always repeated. Marks after values point to notes of the source that are not given here. Non-standard residues stand in square brackets, D forms with d. Residues, ends and D or L forms follow the SMILES beside them. *: point of attachment. Asu = N[C@@H](CCCCCC(=O)O)C(=O)O; NHOH = ON*
Legend:
[1] = target: T1, HDAC3/NCoR2 (Homo sapiens, UniProt O15379); experiment: HDAC inhibition assay (fluorogenic, Ac-Leu-Gly-Lys(Ac)-AMC); type: biochemical; conditions: for HDAC3 dose-response data (relative enzyme activity), Fig. 6 + S. Fig. 10: duplicate columns
T1 construct: HDAC3/NCoR2 (full length, C-terminal His tag, NCoR2 N-terminal GST tag); purchased BPS Bioscience 50003

[2] = target: T2, HDAC6 (Homo sapiens, UniProt Q9UBN7); experiment: as above; type: biochemical; conditions: HDAC6, replicates
T2 construct: HDAC6 (full length, BPS Bioscience, cat. #: 50056); purchased BPS Bioscience 50056
T2 sequence (Q9UBN7 1-1215): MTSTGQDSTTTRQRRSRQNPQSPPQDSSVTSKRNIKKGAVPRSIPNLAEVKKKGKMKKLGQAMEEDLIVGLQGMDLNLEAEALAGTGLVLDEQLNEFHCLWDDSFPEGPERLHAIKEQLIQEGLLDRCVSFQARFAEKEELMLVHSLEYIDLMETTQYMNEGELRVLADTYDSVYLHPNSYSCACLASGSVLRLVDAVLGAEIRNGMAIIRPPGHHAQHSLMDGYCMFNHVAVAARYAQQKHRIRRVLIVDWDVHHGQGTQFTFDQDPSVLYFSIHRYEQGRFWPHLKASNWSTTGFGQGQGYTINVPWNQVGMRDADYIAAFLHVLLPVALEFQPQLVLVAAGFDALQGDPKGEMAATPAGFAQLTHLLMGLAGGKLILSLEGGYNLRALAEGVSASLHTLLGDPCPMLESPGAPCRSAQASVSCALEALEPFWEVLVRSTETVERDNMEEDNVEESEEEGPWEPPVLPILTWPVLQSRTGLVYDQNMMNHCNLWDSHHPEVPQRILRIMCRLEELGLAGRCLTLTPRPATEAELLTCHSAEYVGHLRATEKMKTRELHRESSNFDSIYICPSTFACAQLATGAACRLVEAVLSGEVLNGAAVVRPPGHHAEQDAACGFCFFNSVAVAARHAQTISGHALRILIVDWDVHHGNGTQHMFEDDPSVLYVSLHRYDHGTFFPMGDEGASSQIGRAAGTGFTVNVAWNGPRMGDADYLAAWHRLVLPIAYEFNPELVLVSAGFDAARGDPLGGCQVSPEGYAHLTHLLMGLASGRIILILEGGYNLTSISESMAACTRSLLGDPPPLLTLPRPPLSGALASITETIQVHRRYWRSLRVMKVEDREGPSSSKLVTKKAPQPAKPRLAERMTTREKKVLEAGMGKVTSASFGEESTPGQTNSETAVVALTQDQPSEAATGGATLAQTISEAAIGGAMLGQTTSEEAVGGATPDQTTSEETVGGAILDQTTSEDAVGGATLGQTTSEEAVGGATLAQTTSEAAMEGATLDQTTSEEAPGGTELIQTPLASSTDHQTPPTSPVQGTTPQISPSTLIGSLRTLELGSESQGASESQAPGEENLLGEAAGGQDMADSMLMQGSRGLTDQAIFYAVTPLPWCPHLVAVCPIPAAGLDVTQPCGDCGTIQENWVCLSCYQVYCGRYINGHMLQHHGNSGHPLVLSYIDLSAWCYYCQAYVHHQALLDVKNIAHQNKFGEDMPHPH

[3] = target: T3, HDAC2 (Homo sapiens, UniProt Q92769); experiment: as above; type: biochemical; conditions: for HDAC2 dose-response data (relative enzyme activity), Fig. 6 + S. Fig. 10: duplicate columns
T3 construct: HDAC2 (full length, C-terminal His tag, BPS Bioscience, cat. #: 50002); purchased BPS Bioscience 50002

[4] = target: T1, HDAC3/NCoR2; experiment: Recombinant HDAC µSPOT microarray binding assay
[5] = target: T4, HDAC8 (Homo sapiens, UniProt Q9BY41); experiment: Recombinant HDAC µSPOT microarray binding assay;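 further: peptide µSPOT slides incubated with varying HDAC enzyme concentrations, imaged signal intensity fitted by four-parameter variable-slope regression, EC50 is enzyme concentration giving half-maximal binding, pH 7.4 HEPES buffer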
T4 construct: HDAC8 (full length, C-terminal His tag, BPS Bioscience, cat. #: 50008); purchased BPS Bioscience 50008
T4 sequence (Q9BY41 1-377): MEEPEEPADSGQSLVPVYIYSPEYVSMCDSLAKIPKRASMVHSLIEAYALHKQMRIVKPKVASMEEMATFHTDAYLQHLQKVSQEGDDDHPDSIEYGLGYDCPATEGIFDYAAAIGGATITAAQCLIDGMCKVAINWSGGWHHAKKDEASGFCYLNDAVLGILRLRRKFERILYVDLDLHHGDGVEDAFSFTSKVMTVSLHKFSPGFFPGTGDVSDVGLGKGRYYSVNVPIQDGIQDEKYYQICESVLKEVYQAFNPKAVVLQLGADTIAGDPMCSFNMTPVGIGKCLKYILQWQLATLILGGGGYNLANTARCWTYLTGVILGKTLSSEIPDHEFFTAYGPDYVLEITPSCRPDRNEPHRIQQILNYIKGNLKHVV

[6] = target: T3, HDAC2; experiment: Recombinant HDAC µSPOT microarray binding assay
Description: (§1) Experiments were performed twice, data were obtained with Array Analyze software (Active Motif), and data analysis and representation were performed with the GraphPad Prism 7 software. Outliers were curated manually and data were fitted to nonlinear regression [log(agonist) vs. response—variable slope (four parameters)]. […] Non-sigmoidal curves were denoted as not determined (N.D.) The pEC50 values were determined as the concentration of HDAC enzyme required for half-maximal binding signal.

[7] = target: T5, HDAC1 (Homo sapiens, UniProt Q13547); experiment: Recombinant HDAC µSPOT microarray binding assay;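 further: slides with spotted peptides incubated with six HDAC concentrations in HEPES buffer pH 7.4, spot intensities fitted by four-parameter logistic, EC50 as enzyme concentration giving half-maximal binding signal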
T5 construct: HDAC1 (full length, C-terminal His tag, C-terminal FLAG tag, BPS Bioscience, cat. #: 50051); FLAG (C); purchased BPS Bioscience 50051
Description: as §1

[8] = log[inhibitor(M)] -10,5850266520292*, whole line marked with asterisks
[9] = resynthesized peptides, from Ki

T3 sequence (Q92769 whole entry): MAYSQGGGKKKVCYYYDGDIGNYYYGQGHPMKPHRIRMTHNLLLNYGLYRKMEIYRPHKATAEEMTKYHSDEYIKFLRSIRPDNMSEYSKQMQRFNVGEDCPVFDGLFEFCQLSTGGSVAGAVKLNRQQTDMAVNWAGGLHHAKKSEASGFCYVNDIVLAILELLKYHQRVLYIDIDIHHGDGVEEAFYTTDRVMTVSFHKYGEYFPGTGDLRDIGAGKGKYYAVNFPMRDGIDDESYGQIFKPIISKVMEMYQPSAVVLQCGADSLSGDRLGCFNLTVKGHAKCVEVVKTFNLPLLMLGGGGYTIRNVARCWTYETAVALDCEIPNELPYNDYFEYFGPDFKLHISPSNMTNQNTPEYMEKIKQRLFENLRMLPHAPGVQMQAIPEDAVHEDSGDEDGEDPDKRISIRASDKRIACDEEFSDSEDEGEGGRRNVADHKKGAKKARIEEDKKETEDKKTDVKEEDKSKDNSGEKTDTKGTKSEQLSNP
T1 sequence (O15379 whole entry): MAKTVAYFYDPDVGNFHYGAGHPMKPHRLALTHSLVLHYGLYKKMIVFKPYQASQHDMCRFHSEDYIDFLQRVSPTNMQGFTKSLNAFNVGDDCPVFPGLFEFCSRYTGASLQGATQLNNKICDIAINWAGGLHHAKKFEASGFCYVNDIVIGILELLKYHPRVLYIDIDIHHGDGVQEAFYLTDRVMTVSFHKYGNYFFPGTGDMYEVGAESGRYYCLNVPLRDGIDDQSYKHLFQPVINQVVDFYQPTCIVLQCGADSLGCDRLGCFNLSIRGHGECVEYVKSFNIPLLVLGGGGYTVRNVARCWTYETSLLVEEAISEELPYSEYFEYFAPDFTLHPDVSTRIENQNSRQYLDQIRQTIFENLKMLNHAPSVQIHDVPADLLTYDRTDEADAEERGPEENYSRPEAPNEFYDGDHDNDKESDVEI
T1 sequence (Q9Y618 389-480 partner limits assumed): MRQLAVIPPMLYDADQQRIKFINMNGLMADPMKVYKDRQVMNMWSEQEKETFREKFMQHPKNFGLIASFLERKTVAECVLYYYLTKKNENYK
T5 sequence (Q13547 whole entry): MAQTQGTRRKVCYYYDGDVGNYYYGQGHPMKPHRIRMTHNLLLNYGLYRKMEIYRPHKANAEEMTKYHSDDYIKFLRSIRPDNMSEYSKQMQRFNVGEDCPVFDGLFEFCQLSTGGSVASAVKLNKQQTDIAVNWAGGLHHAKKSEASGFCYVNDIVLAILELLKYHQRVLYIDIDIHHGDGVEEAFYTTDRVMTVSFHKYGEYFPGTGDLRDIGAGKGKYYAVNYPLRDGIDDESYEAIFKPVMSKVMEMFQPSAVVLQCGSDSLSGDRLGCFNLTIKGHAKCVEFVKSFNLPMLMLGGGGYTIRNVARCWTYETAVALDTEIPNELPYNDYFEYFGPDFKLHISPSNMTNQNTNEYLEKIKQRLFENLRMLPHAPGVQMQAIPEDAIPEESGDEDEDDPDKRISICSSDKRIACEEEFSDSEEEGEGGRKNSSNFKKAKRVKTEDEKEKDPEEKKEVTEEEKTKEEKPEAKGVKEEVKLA

With CC[C@H](C)[C@H](NC(=O)[C@@H](NC(=O)[C@H](CO)NC(=O)[C@H](CCCNC(=N)N)NC(=O)[C@H](CCCCCC(=O)NO)NC(=O)[C@H](CC(N)=O)NC(=O)[C@H](Cc1ccc(O)cc1)NC(=O)[C@H](Cc1c[nH]cn1)NC(=O)[C@H](C)NC(=O)[C@H](CC(C)C)NC(=O)[C@H](CCCNC(=N)N)NC(=O)[C@H](CO)NC(=O)[C@H](C)NC(=O)[C@H](CCC(=O)O)NC(C)=O)[C@@H](C)O)C(=O)N[C@H](C(=O)N[C@@H](CO)C(=O)N[C@@H](Cc1c[nH]c2ccccc12)C(N)=O)[C@@H](C)O [11a] (Ac-EASRLAHYN[Asu](NHOH)RSTITSW-NH2) the “HDAC3 dose-response data (relative enzyme activity), Fig. 6 + S. Fig. 10” value ([1]; log[inhibitor(M)] -7.79588) was 44.8111 and 52.4153, the “HDAC3 dose-response data (relative enzyme activity), Fig. 6 + S. Fig. 10” value ([1]; log[inhibitor(M)] -8.49485) was 70.9236 and 81.6314 and the “HDAC3 dose-response data (relative enzyme activity), Fig. 6 + S. Fig. 10” value ([1]; log[inhibitor(M)] -9.19382) was 91.8976 and 96.1605. The “HDAC3 dose-response data (relative enzyme activity), Fig. 6 + S. Fig. 10” value ([1]; log[inhibitor(M)] -9.89279) was 95.3177 and 97.0902, the “HDAC3 dose-response data (relative enzyme activity), Fig. 6 + S. Fig. 10” value [1, 8] was 96,0565351* and 98,690933* and the “selectivity for HDAC3 vs. HDAC8” value [1, 9] was 63 fold and > 60 fold. The “selectivity for HDAC3 vs. HDACs 1 and 2” value [1, 9] was 4 fold and ~ 4 fold, the “residual enzymatic activity relative to control wells” value ([2]; log[inhibitor(M)] -4.30103) was 2.583 and 1.686 and the “residual enzymatic activity relative to control wells” value ([2]; log[inhibitor(M)] -5) was 3.305 and 1.741. The “residual enzymatic activity relative to control wells” value ([2]; log[inhibitor(M)] -5.69897) was 5.202 and 4.016, the “residual enzymatic activity relative to control wells” value ([2]; log[inhibitor(M)] -6.39794) was 10.5662 and 11.8653 and the “residual enzymatic activity relative to control wells” value ([2]; log[inhibitor(M)] -7.09691) was 30.8137 and 34.4652. The “residual enzymatic activity relative to control wells” value ([2]; log[inhibitor(M)] -7.79588) was 67.8407 and 69.7758, the “residual enzymatic activity relative to control wells” value ([2]; log[inhibitor(M)] -8.49485) was 85.433 and 85.1351 and the “residual enzymatic activity relative to control wells” value ([2]; log[inhibitor(M)] -9.19382) was 83.1934 and 87.9013. For the same molecule, the “residual enzymatic activity relative to control wells” value ([2]; log[inhibitor(M)] -9.89279) was 78.0457 and 86.7533, the “residual enzymatic activity relative to control wells” value ([2]; log[inhibitor(M)] -10.585) was 79.87 and 88.4822 and the “HDAC2 dose-response data (relative enzyme activity), Fig. 6 + S. Fig. 10” value ([3]; log[inhibitor(M)] -5) was 1.895 and 2.051. The “HDAC2 dose-response data (relative enzyme activity), Fig. 6 + S. Fig. 10” value ([3]; log[inhibitor(M)] -5.69897) was 7.362 and 7.275, the “HDAC2 dose-response data (relative enzyme activity), Fig. 6 + S. Fig. 10” value ([3]; log[inhibitor(M)] -7.79588) was 79.8909 and 86.975 and the “HDAC2 dose-response data (relative enzyme activity), Fig. 6 + S. Fig. 10” value [3, 8] was 93,4642959* and 101,701404*. For the same molecule, the Ki ([3]; resynthesized peptide in solution, Cheng-Prusoff, n = 2) was 13.8 ± 0.1 nM, the EC50 [4] was 2.82 nM and the EC50 [5] was greater than 25.1 nM. For the same molecule, the EC50 [6] was greater than 25.1 nM and the EC50 [7] was greater than 25.1 nM.
